Source: patent publication US7846903B2, “Type II cubic liquid crystal composition” (National Institute of Advanced Industrial Science and …, priority 2004, dated 2010)

Assays:
[1] = Formation and structure of cubic liquid crystals by polarizing microscopy (penetration method) and SAXS; type: physicochemical; conditions: for liquid crystal phase formed: mixed with water, polarizing microscopy and/or SAXS
Text: Whether or not the amphiphilic lipid/water system forms cubic liquid crystals and whether or not such composition is type I or II can be easily determined by the penetration method. A small amount (several mg) of amphiphilic lipids is placed on a glass slide for a microscope, and slight pressure is applied with a glass cover to form a thin layer of amphiphilic lipids (diameter: about 1 to 5 mm) with a thickness of about 10 μm in the gap between the glass slide and the glass cover. Upon addition of water or an aqueous medium from a side of the gap between the glass slide and the glass cover by capillary action, water gradually invades the amphiphilic lipid thin layer from the exterior edge, and a water content gradient is formed from the amphiphilic lipid thin layer/water interface toward the inside of the amphiphilic lipid thin layer. Polarizing microscopic observation thereof enables the determination of a phase type formed depending on the concentration of the amphiphilic lipid/water system. […] In FIG. 2, 4 regions are observed. The rightmost region in the photograph indicates a water region, and the other regions indicate hydrous amphiphilic lipid regions. In the photograph, the rightmost regions indicates the highest water content and the leftmost region indicates a region of amphiphilic lipids that has not yet been penetrated by water. […] Since cubic liquid crystals are stably formed at the interface of excess water and the amphiphilic lipid portion, such crystals are found to be of type II.
To this end, whether or not the liquid crystal structure has cubic lattices may be investigated by the small-angle x-ray scattering (SAXS) assay. In this process, a sample of an amphiphilic lipid/water system at a given concentration may be introduced into a quartz X-ray capillary tube, the capillary may be sealed with an oxygen burner, and the resultant may be subjected to the SAXS assay.
The cubic liquid crystal composition of the present invention is not particularly limited. […] Thus, spaces and lattice constants can be easily determined. The peak values of small angle X-ray scattering or the cubic lattice size of cubic liquid crystals in the presence of an excess aqueous solvent are at constant levels regardless of the lipid concentration. The coexistence state of cubic liquid crystals and an excess aqueous medium can be confirmed by the SAXS assay. Thus, whether or not the cubic liquid crystals are of type II can be easily determined.
In equations, nL and nW are actually measurable, and ac can be measured by the SAXS experiment. Thus, the dhc value can be determined based on equations (ii) and (iii). […] Based on such comparison, whether or not the cubic liquid crystal structure is of a bicontinuous type can be determined.
Mono-O-(3,7,11,15-tetramethylhexadecyl)pentaerythritol (hereafter referred to as “mono-O-(phytanyl)pentaerythritol,” formula (5) above) and pure water were introduced into a mixing device, and incubation was carried out while performing 100 or more times of mixing operations at room temperature (23° C.) over the period of 48 hours. Thus, a homogeneously mixed sample of mono-O-(phytanyl)pentaerythritol/water system was obtained. This sample of mono-O-(phytanyl)pentaerythritol/water system appeared to be a transparent gel composition.
Subsequently, the thus obtained sample of mono-O-(phytanyl)pentaerythritol/water system (the concentration of the amphiphilic compound: 74.6% by mass) was observed by polarizing microscopy. In entire region of the lipid portions, optically isotropic textures peculiar to the cubic liquid crystals were observed (FIG. 3). In FIG. 3, the right region indicates water and the left region indicates the sample of mono-O-(phytanyl)pentaerythritol/water system. […] Such observation indicates the formation of cubic liquid crystals.
Subsequently, the sample of mono-O-(phytanyl)pentaerythritol/water system was confirmed to be a cubic liquid crystal by small-angle x-ray scattering (SAXS). […]

[2] = Krafft temperature (TK) by DSC of amphiphilic compound/water system; type: physicochemical; conditions: for Krafft temperature (° C.): amphiphilic compound alone; for TK (Krafft temperature): compound/water system
Description: Liquid crystals such as cubic liquid crystals formed by amphiphilic lipids are formed only at the Krafft temperature (TK), as determined depending on types and concentrations of amphiphilic lipids, or higher. Furthermore, liquid crystals generally undergo a phase transition upon changes in the concentration of the amphiphilic lipid or temperature. Accordingly, the maximal temperature (Tmax) at which a given liquid crystal structure can be stably present is also determined depending on lipid type and concentration of amphiphilic lipid. Thus, a liquid crystal structure formed by a given type of amphiphilic lipid is stably formed in the temperature range between TK and Tmax. The correlation between TK-Tmax and the concentration of the amphiphilic lipid is generally indicated as a “concentration-temperature dependent phase diagram” of the amphiphilic lipid/water system. The Krafft temperature of the amphiphilic lipid can be determined by a method known in the art, such as a method involving the preparation of such a phase diagram (e.g., Laughlin, R. G., “The Aqueous Phase Behavior of Surfactants,” 1994, Academic Press London, pp. 106-117). The Krafft temperature of a mixture of two or more amphiphilic lipids can be determined by the same method.
In the cubic liquid crystal composition of the present invention, stable bicontinuous type II cubic liquid crystals are formed at low temperatures, such as lower than 6° C. In the liquid crystal composition of the present invention, stable bicontinuous type II cubic liquid crystals are typically formed between −10° C. (or at the freezing temperature of the aqueous medium used or higher) and 80° C., and preferably between 0° C. and 50° C. The Krafft temperature of the amphiphilic lipid can be easily determined by, for example, DSC assay of an aqueous solution containing 1% to 85% by mass of amphiphilic lipid or by observing the melting behavior of the amphiphilic lipid under a (polarizing) microscope. More precisely, such temperature may be determined in accordance with a conventional technique involving the preparation of a phase diagram (e.g., Laughlin, R. G., “The Aqueous Phase Behavior of Surfactants,” 1994, Academic Press, London, pp. 106-117).
The Krafft temperatures of these amphiphilic compounds and mixtures thereof determined by the analyses described below are shown in Table 2-1 and Table 2-2.
Subsequently, the sample of mono-O-(phytanyl)pentaerythritol/water system was subjected to differential scanning calorimetry (DSC) in a temperature range between −45° C. and 70° C. DSC analysis employed the Seiko SSC/560U differential scanning calorimeter (Seiko Instruments Inc.). The sample of mono-O-(phytanyl)pentaerythritol/water system (72.4% by mass) prepared by the above method was sealed in a DSC cell, and the sample was incubated while cooling at −45° C. for 3 hours to thoroughly form a hydrated solid of mono-O-(phytanyl)pentaerythritol (hereafter abbreviated as “hydrated solid”). Subsequently, this hydrated solid was heated at a rate of temperature increase of 0.5° C./minute and a melting behavior of the hydrated solid was inspected by DSC analysis. As a result, an endothermic peak resulting from melting of the hydrated solid that begins at around −40° C. and ends at around −27° C. and an endothermic peak resulting from ice melting observed between −10° C. and 1° C. were observed, as shown in FIG. 4. In FIG. 4, the left peak is the endothermic peak resulting from melting of the hydrated solid and the right peak is the endothermic peak resulting from ice melting. Although analysis was conducted up to 70° C., other thermal transition was not observed. Substantially the same results were obtained at other concentrations. Thus, the TK of mono-O-(phytanyl)pentaerythritol was concluded to be 0° C. or lower.

[3] = lipid alone, total amphiphilic compound content 60% by mass (excess water)

CC(C)CCCC(C)CCCC(C)CCCC(C)CCOCC(O)CO (stereo not drawn) [1-O-(3,7,11-15-tetramethylhexadecyl)glycerol, reference compound]
liquid crystal phase formed [1]: type II hexagonal liquid crystals

CC(C)CCCC(C)CCCC(C)CCOCC(O)C(O)CO (stereo not drawn) [formula (2), 1-O-(3,7,11-trimethyldodecyl)erythritol]
Krafft temperature (° C.) [2]: 0 °C or lower

CC(C)CCCC(C)CCCC(C)CCCCOCC(O)C(O)CO (stereo not drawn) [formula (3), 1-O-(5,9,13-trimethyltetradecyl)erythritol]
lattice constant ([1]; Ia3d, 53.7% by mass, 20° C.): 17.3 nm
lattice constant ([1]; Ia3d, 53.7% by mass, 35° C.): 17.2 nm
lattice constant ([1]; Ia3d, 53.7% by mass, 40° C.): 17.1 nm
Temperature at which formation of cubic liquid crystals was observed (° C.) ([1]; Table 6, 53.7% by mass, Ia3d + Pn3m): 40 (Ia3d + Pn3m cubic liquid crystals) ° C.
Krafft temperature (° C.) [2]: 0 °C or lower
TK (Krafft temperature) [2]: ≤ 0 °C

CC(C)CCCC(C)CCCC(C)CCCC(C)CC(=O)OCC(O)C(O)CO (stereo not drawn) [formula (4), 1-O-(3,7,11,15-tetramethylhexadecanoyl)erythritol]
lattice constant ([1]; Pn3m, 52.3% by mass, 1° C.): 11.4 nm
lattice constant ([1]; Pn3m, 52.3% by mass, 25° C.): 11.3 nm
lattice constant ([1]; Pn3m, 52.3% by mass, 45° C.): 10.1 nm
Krafft temperature (° C.) [2]: 0 °C or lower
TK (Krafft temperature) [2]: ≤ 0 °C

CC(C)CCCC(C)CCCC(C)CCCC(C)CCOCC(CO)(CO)CO (stereo not drawn) [formula (5), mono-O-(3,7,11,15-tetramethylhexadecyl)pentaerythritol]
maximal temperature at which the cubic liquid crystal structure is formed [1]: 40 °C
lattice constant ([1]; 56.7% by mass, Pn3m cubic liquid crystals, 1° C.): 8.2 nm
lattice constant ([1]; 74.6% by mass, Ia3d cubic liquid crystals, 1° C.): 12.3 nm
Temperature at which formation of cubic liquid crystals was observed (° C.) ([1]; 74.6% by mass, two-phase system of Ia3d and Pn3m cubic liquid crystals): 25 (Two-phase system of Ia3d and Pn3m cubic ° C.
dhc value of bilayer membrane of the cubic liquid crystal structure ([1]; calculated based on SAXS results): 1.17±0.1 nm
diameter of the water channel of the cubic liquid crystals [1, 3]: 2.5 nm
lattice constant of the cubic liquid crystals [1, 3]: 7.06 nm
Krafft temperature (° C.) [2]: 0 °C or lower
TK (Krafft temperature) [2]: ≤ 0 °C

CC(C)CCCC(C)CCCC(C)CCCC(C)CC(=O)OCC(CO)(CO)CO (stereo not drawn) [formula (6), mono-O-(3,7,11,15-tetramethylhexadecanoyl)pentaerythritol]
lattice constant ([1]; 58.9% by mass, 25° C.): 10.6 nm
lattice constant ([1]; 58.9% by mass, 55° C.): 8.3 nm
Temperature at which formation of cubic liquid crystals was observed (° C.) ([1]; Table 4, 56.0% by mass, two-phase system of Pn3m cubic and lamellar liquid crystals): 1 (Two-phase system of Pn3m cubic liquid ° C.
Krafft temperature (° C.) [2]: 0 °C or lower
TK (Krafft temperature) [2]: ≤ 0 °C

CC(C)CCCC(C)CCCC(C)CCCC(C)CCCC(=O)OCC(O)C(O)CO (stereo not drawn) [formula (7), 1-O-(5,9,13,17-tetramethyloctadecanoyl)erythritol]
Krafft temperature (° C.) [2]: 0 °C or lower
TK (Krafft temperature) [2]: ≤ 0 °C

CC(C)CCCC(C)CCCC(C)CCCC(C)CCCCOCC(CO)(CO)CO (stereo not drawn) [formula (8), mono-O-(5,9,13,17-tetramethyloctadecyl)pentaerythritol]
liquid crystal phase formed [1]: bicontinuous type II Pn3m cubic liquid crystals
Krafft temperature (° C.) [2]: 0 °C or lower
TK (Krafft temperature) [2]: ≤ 0 °C

CC(C)CCCC(C)CCCC(C)CCCC(C)CCCC(=O)OCC(CO)(CO)CO (stereo not drawn) [formula (9)]
liquid crystal phase formed [1]: bicontinuous type II Pn3m cubic liquid crystals
Krafft temperature (° C.) [2]: 0 °C or lower
TK (Krafft temperature) [2]: ≤ 0 °C

CC(C)CCCC(C)CCCC(C)CCCC(C)CCCCOC1OC[C@@H](O)C(O)C1O (stereo partly drawn) [formula (10), 1-O-(5,9,13,17-tetramethyloctadecyl)-β-D-xylopyranoside]
lattice constant ([1]; 61.5% by mass, 1° C.): 10.1 nm
lattice constant ([1]; 61.5% by mass, 30° C.): 9.9 nm
lattice constant ([1]; 61.5% by mass, 40° C.): 9.5 nm
Krafft temperature (° C.) [2]: 0 °C or lower
TK (Krafft temperature) [2]: ≤ 0 °C

CC(C)CCCC(C)CCCC(C)CCCC(C)CCOC1OC[C@@H](O)C(O)C1O (stereo partly drawn) [formula (11)]
lattice constant ([1]; 84.2% by mass, 1° C.): 9.8 nm
lattice constant ([1]; 84.2% by mass, 25° C.): 9.7 nm
lattice constant ([1]; 84.2% by mass, 40° C.): 9.6 nm
Temperature at which formation of cubic liquid crystals was observed (° C.) ([1]; Table 12, 78.0% by mass, Ia3d): 1 (Ia3d cubic liquid crystals) ° C.
Krafft temperature (° C.) [2]: 0 °C or lower
TK (Krafft temperature) ([2]; listed as α-XP): ≤ 0 °C

CC(C)CCCC(C)CCCC(C)CCCCOCC(CO)(CO)CO (stereo not drawn) [formula (12), mono-O-(5,9,13-trimethyltetradecyl)pentaerythritol]
Krafft temperature (° C.) [2]: 0 °C or lower
TK (Krafft temperature) [2]: ≤ 0 °C
